Where two headings read alike, the source gives them in different places.
What was measured:
[1] = Effect of comonomers on LCST (slope of LCST vs. mol %); type: physicochemical; settings: comonomer in NIPAAm-based temperature-responsive polymers
Source text: The effect on LCST of a comonomer can be determined by preparing polymers with varying content and evaluating the slope of a line of best fit for the plot of LCST vs. mol % X, where X is the comonomer.

S. aureus ATCC 49230 = experiment: Rabbit infection treatment model; type: in vivo; settings: comparator treatments
Experimental: The present studies utilized the same rabbit infection treatment model initially adapted from Nelson and colleagues delivering tobramycin mixed into the hydrogel by the methods described herein. Twenty rabbits were infected with S. aureus ATCC 49230 and six rabbits were infected with MRSA ATCC BAA-1556. The polymer used in the hydrogels was PNJ18-DBLA with the composition reported in Table 34, and the hydrogel contained 3.14 wt % tobramycin as an active agent which was dissolved separately at the time of use and mixed with polymer solution by end-to-end syringe mixing.

Solubility in water = type: physicochemical
S. epidermidis (35984) = experiment: Minimum biofilm eradication concentration (MBEC) on rabbit muscle; type: cell-based
Experimental: (§1) MBEC of biofilms grown on rabbit muscle specimens in vitro was determined. The goal of the study was to compare the relative spectrum of antimicrobial activity of TOB and VANC either alone or in combination. […] This method also allows for controlled culture conditions and quantitative data without confounding phenomena that would be present in an animal model of infection such as variability throughout a single infection, host immune function, and release/transport of antimicrobials.
(§2) Aseptically obtained rabbit muscle samples (˜40 mg) were incubated in bacterial suspension for 3 days to allow biofilm growth. Tissue specimens were then rinsed and placed in separate wells of a 96-well plate. Medium containing various concentrations of antimicrobials (4000, 2000, 1000, 750, 500, 250, 125, 64, 32, 16, and 0 μg/mL) were then added to the wells containing the contaminated tissue samples. Plates were then incubated for either 6, 24, or 72 hours at 37° C. Following this “exposure time,” the antimicrobial-containing medium was removed and specimens were rinsed with antimicrobial-free growth medium at least 4 times to remove any residual antimicrobials. Then the specimens were subcultured in separate test tubes containing antimicrobial-free medium and incubated at 37° C.
(§3) In each series of specimens for a given strain, antimicrobial treatment, and exposure time, the lowest antimicrobial concentration showing no growth after 21 day subculture was measured to be the MBEC. If all subcultures were positive, the MBEC was determined to be >4000 μg/mL. Selected positive subcultures were confirmed by culture identification at a third-party diagnostic laboratory.

S. aureus (BAA 1556) = experiment: as above; type: cell-based
Experimental: as §1, §2, §3

S. epidermidis (29886) = experiment: as above; type: cell-based
Experimental: as §1, §2, §3

E. coli (25922) = experiment: as above; type: cell-based
Experimental: as §1, §2, §3

S. aureus (49230) = experiment: as above; type: cell-based
Experimental: as §1, §2, §3

P. aeruginosa (27853) = experiment: as above; type: cell-based
Experimental: as §1, §2, §3

S. epidermidis (700583) = experiment: as above; type: cell-based
Experimental: as §1, §2, §3

S. aureus (BAA 1680) = experiment: as above; type: cell-based
Experimental: as §1, §2, §3

E. faecalis (29212) = experiment: as above; type: cell-based
Experimental: as §1, §2, §3

[2] = test system: Ten laboratory standard bacterial strains; experiment: MBEC summary over the bacterial strains tested; type: cell-based; settings: for Strains with MBEC>1,000 μg/mL: 24 and 72 hr exposure
Experimental: Ten laboratory standard bacterial strains intended to represent the spectrum of pathogens found in surgical site infections were evaluated: 3 S. aureus (2 methicillin-resistant, 1 methicillin-sensitive), 4 S. epidermidis (1 methicillin-resistant, 3 methicillin-sensitive), K Faecalis, P. Aeruginosa, and E. Coli (ATCC #BAA-1556, BAA-1680, 49230, 35984, 29886, 700583, 14990, 29212, 27853, and 25922). Both MRSA strains tested (BAA-1556, BAA-1680) are susceptible or intermediately susceptible to both TOB and VANC. S. epidermidis (35984), P. aeruginosa (27853), and E. faecalis (29212) are tobramycin-resistant. None of the gram-positive organisms tested are resistant to vancomycin. Vancomycin is not effective against gram-negative bacteria (E. coli, P. aeruginosa).
as §3

[3] = Stability of hydrophobic comonomers in 95° C. stress conditions, pH 4, titration; type: physicochemical; settings: up to 14 days at 95° C.
Experimental: Stability of additional monomers was also evaluated in 95° C. stress conditions as hydrophobic monomers with the function of decreasing the LCST. […] The polymers were dissolved at 50 mg/mL in 0.2 M sodium acetate-acetic acid buffer (pH 4). Separate samples of 5 mL each were incubated at 95° C. for 0, 2, 4, 7, or 14 days to evaluate stability of the hydrophobic monomers, as NIPAAm and JAAm are known to be relatively stable in these conditions. After the designated time, samples were cooled and stirred to re-dissolve the polymer, and the solution was dialyzed to remove salts and any degradants. Then 100 mg of the recovered material for each sample was dissolved in 10 mL deionized water and evaluated for acid content by titration using phenolphthalein as the indicator and 1 mM NaOH as the titrant. The titration data were corrected against a control sample which contained only deionized water, as about 0.9 mL of titrant in 10 mL was required for the indicator to change color.

[4] = dog, in vivo; cited from earlier work
[5] = cited from earlier work
[6] = Degradation vs. incubation temperature in 0.2 M phosphate buffer (accelerated stability method); type: physicochemical
Experimental: A high concentration of phosphate ions is known to decrease the LCST, an effect known as “salting-out.” Thus, the LCST values measured in this study are lower than for the same polymer in PBS. The polymer was dissolved at 3 mg/mL in 0.2 M phosphate buffer (pH 7.4). […] The buffer was not replaced. This was done to maintain a controlled experiment between temperatures because the samples at low temperatures contained polymer solution, preventing exchange of the buffer. Tubes contained transparent solution at 4° C. and slightly turbid solution at 22° C. Samples incubated at 40-80° C. formed opaque, milky solutions immediately upon heating. After overnight storage, samples incubated at 40-80° C. contained a separated solid precipitate phase at the bottom of the tube, and transparent overlying buffer. […] The LCST of each sample was determined using a cloud point method. […] At each temperature, the absorbance of the solution was measured using a spectrophotometer (450 nm). The temperature at which the absorbance was half of the maximum value was recorded as the LCST. […] For temperatures at which 30° C. was not measured, linear interpolation between the nearest two data points was used to calculate the time at which LCST reached 30° C. […] A separate study evaluated the polymer PNJ1.3-DB20 using the same methods with incubation at 4, 37, 60, and 80° C. in 0.2 M phosphate buffer (pH 7.4). […]

## C=CC(=O)O [Acrylic acid]
[1]
  Effect on LCST: +2.6 ° C./mol %

## C=C(C)C(=O)OCCCC [BMA, butyl methacrylate]
[1]
  Effect on LCST: −0.62 ° C./mol %

## C=CC(=O)OCCCC [Butyl acrylate, butyl acrylate]
[1]
  Effect on LCST: −0.44 ° C./mol %

## C=CC(=O)OC1C(=O)OCC1(C)C (stereo not drawn) [DBLA, dimethyl butyrolactone acrylate]
[1]
  Effect on LCST: −1.8 ° C./mol %

## C=CC(=O)NC1C(=O)OCC1(C)C (stereo not drawn) [DBLAAm, dimethyl butyrolactone acrylamide]
[1]
  Effect on LCST: −0.51 ° C./mol %

## NC[C@H]1O[C@H](O[C@H]2[C@H](O)[C@@H](O[C@H]3O[C@H](CO)[C@@H](O)[C@H](N)[C@H]3O)[C@H](N)C[C@@H]2N)[C@H](N)C[C@@H]1O [TOB, tobramycin]
S. aureus ATCC 49230
  Rabbits that remained infected: 4/7
Solubility in water; over a range of pH values
  Solubility in aqueous solutions: > 30 wt %
S. epidermidis (35984); 6 hr exposure
  MBEC: >4000 µg/mL
S. epidermidis (35984); 24 hr exposure
  MBEC: >4000 µg/mL
S. epidermidis (35984); 72 hr exposure
  MBEC: >4000 µg/mL
S. aureus (BAA 1556); 6 hr exposure
  MBEC: 2000 µg/mL
S. aureus (BAA 1556); 24 hr exposure
  MBEC: 375 µg/mL
S. aureus (BAA 1556); 72 hr exposure
  MBEC: 250 µg/mL
S. epidermidis (29886); 6 hr exposure
  MBEC: 125 µg/mL
S. epidermidis (29886); 24 hr exposure
  MBEC: 125 µg/mL
S. epidermidis (29886); 72 hr exposure
  MBEC: 31 µg/mL
E. coli (25922); 6 hr exposure
  MBEC: 250 µg/mL
E. coli (25922); 24 hr exposure
  MBEC: 62 µg/mL
E. coli (25922); 72 hr exposure
  MBEC: 62 µg/mL
S. aureus (49230); 6 hr exposure
  MBEC: 500 µg/mL
S. aureus (49230); 24 hr exposure
  MBEC: 375 µg/mL
S. aureus (49230); 72 hr exposure
  MBEC: 250 µg/mL
P. aeruginosa (27853); 6 hr exposure
  MBEC: 2000 µg/mL
P. aeruginosa (27853); 24 hr exposure
  MBEC: 375 µg/mL
P. aeruginosa (27853); 72 hr exposure
  MBEC: 62 µg/mL
S. epidermidis (700583); 6 hr exposure
  MBEC: 125 µg/mL
S. epidermidis (700583); 24 hr exposure
  MBEC: 250 µg/mL
S. epidermidis (700583); 72 hr exposure
  MBEC: 375 µg/mL
S. aureus (BAA 1680); 6 hr exposure
  MBEC: >4000 µg/mL
S. aureus (BAA 1680); 24 hr exposure
  MBEC: >4000 µg/mL
S. aureus (BAA 1680); 72 hr exposure
  MBEC: 4000 µg/mL
E. faecalis (29212); 6 hr exposure
  MBEC: >4000 µg/mL
E. faecalis (29212); 24 hr exposure
  MBEC: >4000 µg/mL
E. faecalis (29212); 72 hr exposure
  MBEC: >4000 µg/mL
[2]
  Strains with MBEC>1,000 μg/mL: 3 strains
[2]; 6 hr exposure
  # Strains w/ MBEC ≥1000 μg/mL: 5/10
[2]; 24 hr exposure
  # Strains w/ MBEC ≥1000 μg/mL: 3/10
  Max. MBEC: >4000 µg/mL
  Median MBEC: 250 µg/mL
[2]; 72 hr exposure
  # Strains w/ MBEC ≥1000 μg/mL: 3/10

## C=CC(=O)NC(C)(C)C [Tert-butyl acrylamide, tert-butyl acrylamide]
[1]
  Effect on LCST: −0.41 ° C./mol %

## C=CC(=O)OC(C)(C)C [Tert-butyl acrylate, tert-butyl acrylate]
[3]
  Initial structure retained: poorest stability
[1]
  Effect on LCST: −0.69 ° C./mol %

## CN[C@H](CC(C)C)C(=O)N[C@H]1C(=O)N[C@@H](CC(N)=O)C(=O)N[C@H]2C(=O)N[C@H]3C(=O)N[C@H](C(=O)N[C@H](C(=O)O)c4cc(O)cc(O)c4-c4cc3ccc4O)[C@H](O)c3ccc(c(Cl)c3)Oc3cc2cc(c3O[C@@H]2O[C@H](CO)[C@@H](O)[C@H](O)[C@H]2O[C@H]2C[C@](C)(N)[C@H](O)[C@H](C)O2)Oc2ccc(cc2Cl)[C@H]1O [VANC, vancomycin]
Solubility in water; about pH 3
  Maximum solubility: ~19 wt %
Solubility in water; pH 4-7.4
  Solubility: ≤ 2 wt %
S. epidermidis (35984); 6 hr exposure
  MBEC: 4000 µg/mL
S. epidermidis (35984); 24 hr exposure
  MBEC: 750 µg/mL
S. epidermidis (35984); 72 hr exposure
  MBEC: 375 µg/mL
S. aureus (BAA 1556); 6 hr exposure
  MBEC: 4000 µg/mL
S. aureus (BAA 1556); 24 hr exposure
  MBEC: 2000 µg/mL
S. aureus (BAA 1556); 72 hr exposure
  MBEC: 1000 µg/mL
S. epidermidis (29886); 6 hr exposure
  MBEC: 375 µg/mL
S. epidermidis (29886); 24 hr exposure
  MBEC: 375 µg/mL
S. epidermidis (29886); 72 hr exposure
  MBEC: 375 µg/mL
E. coli (25922); 6 hr exposure
  MBEC: >4000 µg/mL
E. coli (25922); 24 hr exposure
  MBEC: >4000 µg/mL
E. coli (25922); 72 hr exposure
  MBEC: >4000 µg/mL
S. aureus (49230); 6 hr exposure
  MBEC: >4000 µg/mL
S. aureus (49230); 24 hr exposure
  MBEC: >4000 µg/mL
S. aureus (49230); 72 hr exposure
  MBEC: 2000 µg/mL
P. aeruginosa (27853); 6 hr exposure
  MBEC: >4000 µg/mL
P. aeruginosa (27853); 24 hr exposure
  MBEC: >4000 µg/mL
P. aeruginosa (27853); 72 hr exposure
  MBEC: >4000 µg/mL
S. epidermidis (700583); 6 hr exposure
  MBEC: 1000 µg/mL
S. epidermidis (700583); 24 hr exposure
  MBEC: 1000 µg/mL
S. epidermidis (700583); 72 hr exposure
  MBEC: 1000 µg/mL
S. aureus (BAA 1680); 6 hr exposure
  MBEC: 4000 µg/mL
S. aureus (BAA 1680); 24 hr exposure
  MBEC: 2000 µg/mL
S. aureus (BAA 1680); 72 hr exposure
  MBEC: 2000 µg/mL
E. faecalis (29212); 6 hr exposure
  MBEC: 1000 µg/mL
E. faecalis (29212); 24 hr exposure
  MBEC: 375 µg/mL
E. faecalis (29212); 72 hr exposure
  MBEC: 250 µg/mL
[2]
  Strains with MBEC>1,000 μg/mL: 6 strains
[2]; 6 hr exposure
  # Strains w/ MBEC ≥1000 μg/mL: 8/10
[2]; 24 hr exposure
  # Strains w/ MBEC ≥1000 μg/mL: 6/10
  Max. MBEC: >4000 µg/mL
  Median MBEC: 750 µg/mL
[2]; 72 hr exposure
  # Strains w/ MBEC ≥1000 μg/mL: 6/10

## CCCCN1CCCCC1C(=O)Nc1c(C)cccc1C (stereo not drawn) [bupivacaine]
[4]
  Toxic systemic levels: 1,000-2,000 ng/mL
[5]
  Water solubility: approximately 200 μg/mL
[5]; higher pH above 7.64
  Water solubility: less than 0.1 wt %
[5]; pH≈6
  Water solubility: 2-5 wt %

## poly(NIPAAm-co-DBLA-co-JAAm) [PNJ18-DBLA]
[6]
  Degradation at 22° C., times faster than at 4° C.: 3.63 times
  Degradation at 80° C., times faster than at 40° C.: 11.67 times

— patent publication US12097260B2, “Temperature-responsive degradable hydrogels” (priority 2017, dated 2024)
